According to the NIST ThermoML archive (doi:10.1016/j.tca.2004.11.015):

Experiment: xn = mol fraction of the nth substance listed
Conditions: 101.33 kPa, Liquid, Vibrating tube method

NCCO [2-aminoethan-1-ol] + CO
mass density [kg/m3]
Conditions | 283.15 K | 288.15 K | 293.15 K | 298.15 K | 303.15 K | 308.15 K | 313.15 K | 318.15 K
x1 = 0.012 | 805.83 | 801.17 | 796.49 | 791.8 | 787.1 | 782.38 | 777.63 | 772.84
x1 = 0.031 | 813.82 | 809.2 | 804.57 | 799.92 | 795.25 | 790.55 | 785.84 | 781.09
x1 = 0.05 | 821.45 | 816.86 | 812.26 | 807.64 | 803 | 798.35 | 793.66 | 788.95
x1 = 0.1 | 840.61 | 836.11 | 831.59 | 827.05 | 822.49 | 817.92 | 813.31 | 808.68
x1 = 0.15 | 858.27 | 853.79 | 849.33 | 844.86 | 840.37 | 835.87 | 831.33 | 826.77
x1 = 0.2002 | 874.67 | 870.3 | 865.9 | 861.49 | 857.06 | 852.62 | 848.14 | 843.64
x1 = 0.2501 | 889.65 | 885.33 | 880.98 | 876.62 | 872.24 | 867.83 | 863.41 | 858.96
x1 = 0.2974 | 902.94 | 898.66 | 894.35 | 890.03 | 885.69 | 881.34 | 876.95 | –
x1 = 0.3502 | 916.72 | 912.48 | 908.21 | 903.94 | 899.65 | 895.33 | 891 | –
x1 = 0.4001 | 928.53 | 924.32 | 920.09 | 915.84 | 911.58 | 907.3 | 903 | –
x1 = 0.4427 | 938.12 | 933.94 | 929.73 | 925.51 | 921.28 | 917.02 | 912.75 | –
x1 = 0.4502 | 939.89 | 935.71 | 931.52 | 927.31 | 923.08 | 918.84 | 914.57 | –
x1 = 0.5002 | 950.16 | 946.01 | 941.84 | 937.66 | 933.46 | 929.24 | 925 | –
x1 = 0.5501 | 959.78 | 955.65 | 951.5 | 947.35 | 943.18 | 938.99 | 934.78 | –
x1 = 0.6001 | 968.89 | 964.79 | 960.67 | 956.54 | 952.39 | 948.22 | 944.04 | –
x1 = 0.6501 | 977.39 | 973.31 | 969.21 | 965.1 | 960.97 | 956.84 | 952.68 | –
x1 = 0.7005 | 985.59 | 981.53 | 977.45 | 973.37 | 969.28 | 965.16 | 961.03 | –
x1 = 0.7479 | 992.48 | 988.45 | 984.39 | 980.32 | 976.24 | 972.15 | 968.04 | –
x1 = 0.8002 | 1000.19 | 996.18 | 992.15 | 988.11 | 984.06 | 980 | 975.92 | –
x1 = 0.8502 | 1006.55 | 1002.56 | 998.55 | 994.53 | 990.5 | 986.45 | 982.4 | –
x1 = 0.8967 | 1012.63 | 1008.66 | 1004.66 | 1000.67 | 996.66 | 992.63 | 988.6 | –
x1 = 0.9501 | 1018.78 | 1014.82 | 1010.85 | 1006.88 | 1002.89 | 998.89 | 994.88 | –
